Structures are written as SMILES.

Among the data in a compilation of properties of binary mixtures (doi:10.1039/c7cp04078d) are viscosity values, retold here.

The data set in a line: xn = mol fraction of the nth substance listed. As to conditions: 303.15 K, 100 kPa.

Turning to `CC(=O)[O-].CCCC[N+](CCCC)(CCCC)CCCC` + CC(=O)O, the viscosity was found to be 680 mPa·s (x2 = 0); 460 mPa·s (x2 = 0.1); 297 mPa·s (x2 = 0.2); 169 mPa·s (x2 = 0.33); 83 mPa·s (x2 = 0.5); 41 mPa·s (x2 = 0.67). For the same molecule, the viscosity is, setting by setting: (x2 = 0.8) 25 mPa·s; (x2 = 0.9) 19 mPa·s.

As to `CC(=O)[O-].CCCC[N+](CCCC)(CCCC)CCCC` + CCCCN, the viscosity is 680 mPa·s (x2 = 0); 390 mPa·s (x2 = 0.1); 78 mPa·s (x2 = 0.33); 28 mPa·s (x2 = 0.5); 16 mPa·s (x2 = 0.67); 11 mPa·s (x2 = 0.8). In addition, the viscosity (x2 = 0.9) amounted to 9 mPa·s.
